Reference: patent publication US20240010639A1, “TRIAZINE DIONE DERIVATIVE, PREPARATION METHOD THEREFOR AND APPLICATION THEREOF IN MEDICINE” (Jiangsu Hengrui Pharmaceuticals Co., Ltd., priority 2020, published 2024)
Read-outs that look alike come from different tables or passages of the source.

Test: Toxicokinetic evaluation of 14-day repeated intragastric administration to SD rats
Type: in vivo
Conditions: both sexes, SD, rat, plasma, po
Experimental: With SD rats as test animals, the plasma concentrations of the test compounds and the concentrations of the original forms of the compounds in the administration solutions were measured by LC/MS/MS at different time points after intragastric administration. The toxicokinetic performance of the compound disclosed herein was studied in SD rats and its toxicokinetic profile was evaluated.
24 SD rats, an equal number of males and females, evenly divided into 6 groups of 4, an equal number of males and females in each group, provided by Vital River Laboratory Animal Technology Co., Ltd.
A certain amount of the compound of Example 16 was measured out, and 15% PEG400 and 85% (10% TPGS+1% HPMC K100LV) were added to prepare a pale yellow homogenous suspension.
A certain amount of compound MYK-461 was measured out, and 0.5% MC was added to prepare a colorless clear solution.
The compound of Example 16 was intragastrically administered at doses of 5 mg/kg, 15 mg/kg and 30 mg/kg, at a volume of 10 mL/kg.
Compound MYK-461 was administered at doses of 0.5 mg/kg, 1.5 mg/kg and 3 mg/kg, at a volume of 10 mL/kg.
0.2-mL blood samples were collected from the orbit 0.5 h, 1.0 h, 2.0 h, 4.0 h, 8.0 h and 24.0 h after administration on day 1, and before administration and 0.5 h, 1.0 h, 2.0 h, 4.0 h, 8.0 hi, 24.0 h after administration on day 7 and day 14, placed into EDTA-K2 anticoagulation tubes, and centrifuged at 10,000 rpm for 1 min (4° C.), and plasma was isolated within 1 h and stored at −20° C. before analysis. The blood collection to centrifugation process was performed under ice bath conditions. Two hours after administration, feeding was resumed.
Determination of plasma concentrations in SD rats after intragastric administration of different concentrations of test compounds: 20 μL of SD rat plasma at each time point post-dose was mixed with 50 μL of an internal standard solution (internal standard for the compound of Example 16: 100 ng/mL verapamil; internal standard for compound MYK-461: 100 ng(mL camptothecin) and 200 μL of acetonitrile; the mixture was vortexed for 5 min and centrifuged at 3700 rpm for 10 min, and 1 μL of the supernatant was taken for LC/MS/MS analysis.

`Cc1ccc(F)c([C@H](C)Nc2nc(=O)n(C3CCOCC3)c(=O)[nH]2)c1` [Example 16, (S)-6-((1-(2-Fluoro-5-methylphenyl)ethyl)amino)-3-(tetrahydro-2H-pyran-4-yl)-1,3,5-triazine-2,4(1H,3H)-dione] showed an AUC at 1 day (15 mg/kg, repeated intragastric 15 mg/kg, Day 1, read-out: Area under curve AUC) of 80400 ng·h/mL, a CL/F (15 mg/kg, repeated intragastric 15 mg/kg, Day 1, read-out: Clearance CL/F) of 3.08 mL/min/kg and a half-life at 1 day (15 mg/kg, repeated intragastric 15 mg/kg, Day 1, read-out: Half-life T1/2 (converted)) of 5.1 h. The Cmax at 1 day (15 mg/kg, repeated intragastric 15 mg/kg, Day 1, read-out: Plasma concentration Cmax) was 16100 ng/mL, the MRT at 1 day (15 mg/kg, repeated intragastric 15 mg/kg, Day 1, read-out: Residence time MRT) was 5.4 h and the Vd/F (15 mg/kg, repeated intragastric 15 mg/kg, Day 7, read-out: Apparent volume of distribution Vz/F) was 2.13 L/kg. It also gave an AUC (15 mg/kg, repeated intragastric 15 mg/kg, Day 7, read-out: Area under curve AUC) of 70900 ng·h/mL, a CL/F (15 mg/kg, repeated intragastric 15 mg/kg, Day 7, read-out: Clearance CL/F) of 3.58 mL/min/kg and a half-life (15 mg/kg, repeated intragastric 15 mg/kg, Day 7, read-out: Half-life T1/2 (converted)) of 6.5 h. The Cmax (15 mg/kg, repeated intragastric 15 mg/kg, Day 7, read-out: Plasma concentration Cmax) was 16800 ng/mL, the MRT (15 mg/kg, repeated intragastric 15 mg/kg, Day 7, read-out: Residence time MRT) was 6.7 h and the Vd/F (15 mg/kg, repeated intragastric 15 mg/kg, Day 14, read-out: Apparent volume of distribution Vz/F) was 1.45 L/kg. For the same compound, the AUC (15 mg/kg, repeated intragastric 15 mg/kg, Day 14, read-out: Area under curve AUC) was 82900 ng·h/mL, the CL/F (15 mg/kg, repeated intragastric 15 mg/kg, Day 14, read-out: Clearance CL/F) was 2.98 mL/min/kg and the half-life (15 mg/kg, repeated intragastric 15 mg/kg, Day 14, read-out: Half-life T1/2 (converted)) was 5.6 h. The Cmax (15 mg/kg, repeated intragastric 15 mg/kg, Day 14, read-out: Plasma concentration Cmax) was 14100 ng/mL, the MRT (15 mg/kg, repeated intragastric 15 mg/kg, Day 14, read-out: Residence time MRT) was 6.4 h and the Vd/F (30 mg/kg, repeated intragastric 30 mg/kg, Day 1, read-out: Apparent volume of distribution Vz/F) was 2.26 L/kg. For the same compound, the AUC (30 mg/kg, repeated intragastric 30 mg/kg, Day 1, read-out: Area under curve AUC) was 105000 ng·h/mL, the CL/F (30 mg/kg, repeated intragastric 30 mg/kg, Day 1, read-out: Clearance CL/F) was 4.72 mL/min/kg and the half-life (30 mg/kg, repeated intragastric 30 mg/kg, Day 1, read-out: Half-life T1/2 (converted)) was 5.6 h. For the same compound, the Cmax (30 mg/kg, repeated intragastric 30 mg/kg, Day 1, read-out: Plasma concentration Cmax) was 18700 ng/mL, the MRT (30 mg/kg, repeated intragastric 30 mg/kg, Day 1, read-out: Residence time MRT) was 6.4 h and the Vd/F (30 mg/kg, repeated intragastric 30 mg/kg, Day 7, read-out: Apparent volume of distribution Vz/F) was 2.15 L/kg. For the same compound, the AUC (30 mg/kg, repeated intragastric 30 mg/kg, Day 7, read-out: Area under curve AUC) was 121000 ng·h/mL, the CL/F (30 mg/kg, repeated intragastric 30 mg/kg, Day 7, read-out: Clearance CL/F) was 4.14 mL/min/kg and the half-life (30 mg/kg, repeated intragastric 30 mg/kg, Day 7, read-out: Half-life T1/2 (converted)) was 5.9 h. For the same compound, the Cmax (30 mg/kg, repeated intragastric 30 mg/kg, Day 7, read-out: Plasma concentration Cmax) was 21600 ng/mL, the MRT (30 mg/kg, repeated intragastric 30 mg/kg, Day 7, read-out: Residence time MRT) was 6.7 h and the Vd/F (30 mg/kg, repeated intragastric 30 mg/kg, Day 14, read-out: Apparent volume of distribution Vz/F) was 1.69 L/kg. For the same compound, the AUC (30 mg/kg, repeated intragastric 30 mg/kg, Day 14, read-out: Area under curve AUC) was 139000 ng·h/mL, the CL/F (30 mg/kg, repeated intragastric 30 mg/kg, Day 14, read-out: Clearance CL/F) was 3.52 mL/min/kg and the half-life (30 mg/kg, repeated intragastric 30 mg/kg, Day 14, read-out: Half-life T1/2 (converted)) was 5.6 h. The Cmax (30 mg/kg, repeated intragastric 30 mg/kg, Day 14, read-out: Plasma concentration Cmax) was 20000 ng/mL and the MRT (30 mg/kg, repeated intragastric 30 mg/kg, Day 14, read-out: Residence time MRT) was 6.9 h.
